Source: US9546151B2, “VMAT inhibitory compounds” (Oregon Health & Science University, priority 2014, dated 2017)
Read-outs that look alike come from different tables or passages of the source.

Assays:
[1] = molecular target: T1, human 5HT1A receptor (Homo sapiens, UniProt P08908); assay: h5HT1A receptors: [3H]8-OH-DPAT binding; conditions: cells printed in μM under a head in nM; read-out: 5-HT1A [^3H] 8—OH DPAT Ki(nM) ± SEM
T1 construct: expressed in transfected cells; host or cells: HEK cells (G418 selection)
T1 sequence (P08908 1-422): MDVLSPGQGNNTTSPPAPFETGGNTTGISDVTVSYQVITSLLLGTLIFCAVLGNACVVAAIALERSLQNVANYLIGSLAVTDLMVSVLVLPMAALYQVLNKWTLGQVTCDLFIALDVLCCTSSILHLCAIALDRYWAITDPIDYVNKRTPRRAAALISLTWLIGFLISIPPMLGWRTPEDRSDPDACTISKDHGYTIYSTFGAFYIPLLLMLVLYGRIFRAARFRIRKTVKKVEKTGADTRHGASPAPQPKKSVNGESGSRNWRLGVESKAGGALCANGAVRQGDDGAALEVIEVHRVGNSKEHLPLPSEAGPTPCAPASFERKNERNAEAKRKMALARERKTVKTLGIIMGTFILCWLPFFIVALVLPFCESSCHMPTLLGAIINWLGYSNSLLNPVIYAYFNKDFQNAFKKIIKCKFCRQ
Description: Human embryonic kidney cells expressing the human 5HT1A receptor (HEK-h5HT1A) were used. The cells were grown to confluence in DMEM containing 10% FetalClone® (abbreviated as FC—source: HyClone), 0.05% penicillin-streptomycin (pen-strep), and 300 μg/mL of Geneticin (G418). The cells were scraped from 150 mm plates into phosphate-buffered saline and centrifuged at 270×g, 1200 rpm, for 10 minutes. The cell pellet was homogenized in 50 mM Tris-HCl (pH 7.7) with a Polytron, and centrifuged at 27,000×g. […] The final pellet was resuspended at 0.5 mg protein/mL in assay buffer (25 mM Tris-HCl, pH 7.4, containing 100 μM ascorbic acid and 10 μM pargyline). The assay was performed in duplicate in a 96-well plate. Serial dilutions of test compounds were made using the Biomek 2000 robotics system. […] Nonspecific binding was determined with 1.0 μM dihydroergotamine. The plates were incubated at room temperature for 60 minutes and then filtered through polyethylenimine-soaked (0.05%) “A” filtermats on a Tomtec cell harvester. The filters were washed with cold 50 mM Tris buffer (pH 7.7) for 6 sec, dried, spotted with scintillation cocktail, and counted for 2 minutes after a 4 hour delay on a Wallac Betaplate 1205 liquid scintillation counter.

[2] = molecular target: T2, VMAT2 (Homo sapiens, UniProt Q05940); assay: hVMAT2 [3H]DTBZ ([3H]DHTB) binding assay; design: expressed in transfected cells; host or cells: HEK (human embryonic kidney) cells
T2 sequence (Q05940 whole entry): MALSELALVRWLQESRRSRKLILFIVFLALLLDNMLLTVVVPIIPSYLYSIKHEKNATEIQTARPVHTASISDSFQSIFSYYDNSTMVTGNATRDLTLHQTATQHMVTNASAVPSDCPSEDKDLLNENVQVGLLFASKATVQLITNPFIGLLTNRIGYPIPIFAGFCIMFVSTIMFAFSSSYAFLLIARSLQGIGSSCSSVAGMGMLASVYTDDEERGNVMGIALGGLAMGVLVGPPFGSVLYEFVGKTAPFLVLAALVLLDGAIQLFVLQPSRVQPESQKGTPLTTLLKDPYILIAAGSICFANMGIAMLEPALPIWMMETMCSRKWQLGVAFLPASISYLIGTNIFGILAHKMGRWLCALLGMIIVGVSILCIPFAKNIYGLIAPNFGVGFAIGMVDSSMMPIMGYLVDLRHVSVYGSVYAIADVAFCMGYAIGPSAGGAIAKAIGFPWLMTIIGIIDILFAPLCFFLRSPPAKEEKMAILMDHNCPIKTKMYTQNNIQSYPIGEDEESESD
Description: (§1) Membrane preparation for binding, uptake and release assays using HEK-hVMAT2 cells: Human embryonic kidney cells expressing the human vesicular monoamine transporter 2 (HEK-hVMAT2) were used. HEK-hVMAT2 cells were grown until confluent. The media was removed from plates, solution A [sucrose (0.32 M) with protease inhibitors] was added to the plate, and cells were scraped from plate. Cells were homogenized with 12 strokes of a glass/glass homogenizer. The homogenate was centrifuged at 800×g for 10 min. The supernatant was removed and saved, and the pellet was resuspended, homogenized and centrifuged as above. The supernatants were combined and centrifuged at 10,000×g for 20 min. The pellet was resuspended in solution A (0.75 ml). The membranes were osmotically shocked by addition of 2.625 ml ice cold water and homogenized by 5 strokes of a glass/Teflon homogenizer. The osmolarity was reestablished with addition of Tris (338 μl, 0.25M, pH 7.4 at 4° C.), sodium potassium tartrate (338 μl, 1.0 M), and MgSO4 (4 μl, 0.9M). The homogenate was centrifuged at 20,000×g for 20 min.
Binding was terminated by filtration over Whatman GF/C filters using a Tomtec 96-well cell harvester. Filters were washed for six seconds with ice-cold saline. Scintillation fluid was added to each square and radioactivity remaining on the filters was determined using a Wallac μ- or beta-plate reader. Specific binding was defined as the difference in binding observed in the presence and absence of Ro4-1284 (10 μM, generously supplied by Hoffman LaRoche). Three or more independent competition experiments were conducted with duplicate determinations.

[3] = molecular target: T2, VMAT2; assay: hVMAT2 5HT Uptake; type: biochemical; design: expressed in transfected cells; host or cells: HEK (human embryonic kidney) cells
Description: as §1

[4] = molecular target: T3, human 5HT2A receptor (Homo sapiens, UniProt P28223); assay: h5HT2A receptors: [125I]DOI binding; conditions: read-out: 5-HT2A [^125I]DOI Ki (nM) ± SEM
T3 construct: expressed in transfected cells; host or cells: HEK cells
T3 sequence (P28223 whole entry): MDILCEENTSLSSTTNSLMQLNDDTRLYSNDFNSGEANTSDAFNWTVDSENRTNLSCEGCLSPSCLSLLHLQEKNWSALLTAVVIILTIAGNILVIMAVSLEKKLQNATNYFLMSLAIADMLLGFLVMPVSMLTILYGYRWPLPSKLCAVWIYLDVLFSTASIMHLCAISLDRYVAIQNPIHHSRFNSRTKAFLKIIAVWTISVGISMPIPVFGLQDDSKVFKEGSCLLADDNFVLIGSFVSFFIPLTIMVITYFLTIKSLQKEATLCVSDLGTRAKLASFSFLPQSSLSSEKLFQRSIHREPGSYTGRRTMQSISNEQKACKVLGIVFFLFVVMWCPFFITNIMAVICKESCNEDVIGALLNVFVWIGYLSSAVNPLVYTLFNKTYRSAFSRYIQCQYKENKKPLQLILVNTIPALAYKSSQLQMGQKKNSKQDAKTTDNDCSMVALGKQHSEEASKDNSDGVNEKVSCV
Description: Method: Human embryonic kidney cells expressing the human 5HT2A receptor (HEK-h5HT2A) or human 5HT2C receptor (HEK-h5HT2C) were used. The cells were grown until confluent on 15 cm plates. Media was removed, cells were washed with phosphate-buffered saline (PBS), scraped into 2 ml PBS and frozen at −20° C. until needed. Cell suspension was thawed, 10 ml assay buffer (50 mM Tris, pH 7.4 at 37° C., with 0.1% ascorbic acid and 5 mM CaCl2) was added per plate of cells, and polytronned at setting 6 for 5 sec. The homogenate was centrifuged at 15,500 rpm for 20 min. […] The final pellet was resuspended in 2 ml buffer/plate of cells.
The reaction was incubated for 1 hour at 37° C., and terminated by filtration through Wallac A filtermats presoaked in 0.05% polyethylenimine using a Tomtec 96-well harvester. Radioactivity remaining on filters was counted in a Wallac betaplate reader. IC50 values were calculated using GraphPad Prism. IC50 values were converted using the Cheng-Prusoff equation.

[5] = [^3H]5HT uptake, HEK-hVMAT2 preparation, read-out: hVMAT2 5HT Uptake IC50 (nM) ± SEM
[6] = cells printed in μM under a head in nM, HEK-hVMAT2 membranes
[7] = cells printed in μM under a head in nM, read-out: hVMAT2 5HT Uptake IC50 (nM) ± SEM
[8] = cells printed in μM under a head in nM

Structure (SMILES) | Ki [1] [µM] | Ki [2] [µM] | IC50 [3, 5] [nM] | Ki ([4]; HEK-h5HT2A homogenate) [nM] | Ki [2, 6] [µM] | IC50 [3, 7] [nM] | melting point [°C] | Ki ([2]; HEK-hVMAT2 membranes, series 5 ligands tested as hydrochloride salts) [µM] | IC50 [3] [nM] | Ki [4, 8] [nM]
CCOC(=O)[C@@H]1CN(CCn2c(=O)[nH]c3ccccc3c2=O)CC[C@@H]1c1ccccc1 (racemic) [Compound 5a, (±) syn-ethyl 1-(2-(2,4-dioxo-1,2-dihydroquinazolin-3(4H)-yl)ethyl)-4-phenylpiperidine-3-carboxylate] | > 10 | 1.17 ± 0.314 | 17 | 37.3 ± 8.5 |  |  |  |  |  | 
CCOC(=O)[C@H]1CN(CCn2c(=O)[nH]c3ccccc3c2=O)CC[C@H]1c1cccc(N(C)C)c1 (racemic) [Compound 5aa, (±)-syn-Ethyl 4-(3-(dimethylamino)phenyl)-1-(2-(2,4-dioxo-1,2-dihydroquinazolin-3(4H),-yl)ethyl) piperidine-3-carboxylate] | > 10 |  |  |  | > 10 | > 5000 |  |  |  | > 10000
CCOC(=O)[C@@H]1CN(CCn2c(=O)[nH]c3ccccc3c2=O)CC[C@@H]1c1ccc(C)cc1 (racemic) [Compound 5b, (±) syn-ethyl 1-(2-(2,4-dioxo-1,2-dihydroquinazolin-3(4H)-yl)ethyl)-4-(p-tolyl)piperidine-3-carboxylate] | > 10 |  | 313 ± 54 |  | > 9 |  |  |  |  | > 10000
CCOC(=O)[C@@H]1CN(CCn2c(=O)[nH]c3ccccc3c2=O)CC[C@@H]1c1ccc(C(F)(F)F)cc1 (racemic) [Compound 5f, (±) syn-ethyl 1-(2-(2,4-dioxo-1,2-dihydroquinazolin-3(4H)-yl)ethyl)-4-(4-(trifluoromethyl)phenyl)piperidine-3-carboxylate] | > 10 |  | 416 ± 43 |  | > 10 |  |  |  |  | > 10000
CCOC(=O)[C@@H]1CN(CCn2c(=O)[nH]c3ccccc3c2=O)CC[C@@H]1c1cccc(C(F)(F)F)c1 (racemic) [Compound 5g, (±) syn-ethyl 1-(2-(2,4-dioxo-1,2-dihydroquinazolin-3(4H)-yl)ethyl)-4-(3-(trifluoromethyl)phenyl)piperidine-3-carboxylate] | > 10 |  | 166 ± 6 |  | > 10 |  |  |  |  | > 10000
CC1CN(CCn2c(=O)[nH]c3ccccc3c2=O)CCC1C(=O)c1ccc(F)cc1 (racemic) [R1=H, R2=α/β-CH3] | > 10 |  | 333 ± 106 | 45.9 ± 12.4 |  |  |  | 0.276 ± 0.024 |  | 
CCOC(=O)[C@H]1CN(CCCn2c(=O)[nH]c3ccccc3c2=O)CC[C@H]1c1ccc(F)cc1 (racemic) [n=2, (±)-syn-Ethyl 1-(3-(2,4-dioxo-1,2-dihydroquinazolin-3(4H)-yl)propyl)-4-(4-fluorophenyl)piperidine-3-carboxylate] | > 10 | > 10 |  |  |  |  | 171.8 to 172.4 |  | 43 ± 4 | 
CCOC(=O)[C@H]1CN(CCCCn2c(=O)[nH]c3ccccc3c2=O)CC[C@H]1c1ccc(F)cc1 (racemic) [n=3, (±)-syn-Ethyl 1-(4-(2,4-dioxo-1,2-dihydroquinazolin-3(4H)-yl)butyl)-4-(4-fluorophenyl)piperidine-3-carboxylate] |  | > 10 |  |  |  |  | 148.5 to 149.7 |  | 133 ± 52 | 
CC1CN(CCn2c(=O)[nH]c3ccccc3c2=O)CCC1C(=O)c1ccc(F)cc1 (single isomer, unassigned) [R1=H, R2=α-CH3] | > 5 |  |  | 19.8 ± 5.8 | > 6.4 | > 7300 |  |  |  | 
O=C(c1ccc(F)cc1)C1CCN(CCn2c(=O)[nH]c3ccc(Br)cc3c2=O)CC1 [R1=Br, R2=H] | > 2 |  |  | 0.8 ± 0.24 | > 3 | > 2000 |  |  |  | 

Now from value to compound, other results behind:

Ki [1] [µM] | Ki [2] [µM] | IC50 [3, 5] [nM] | Ki ([4]; HEK-h5HT2A homogenate) [nM] | Ki [2, 6] [µM] | IC50 [3, 7] [nM] | melting point [°C] | Ki ([2]; HEK-hVMAT2 membranes, series 5 ligands tested as hydrochloride salts) [µM] | IC50 [3] [nM] | Structure (SMILES) | Ki [4, 8] [nM]
> 9 |  |  |  |  |  |  |  |  | CCOC(=O)[C@@H]1CN(CCn2c(=O)[nH]c3ccccc3c2=O)CC[C@@H]1c1ccc(F)cc1 (racemic) [Compound 5d, (±) syn-ethyl 1-(2-(2,4-dioxo-1,2-dihydroquinazolin-3(4H)-yl)ethyl)-4-(4-fluorophenyl)piperidine-3-carboxylate] | > 2000
> 10 |  |  |  |  |  |  |  |  | CCOC(=O)c1ccc([C@H]2CCN(CCn3c(=O)[nH]c4ccccc4c3=O)C[C@H]2C(=O)OCC)cc1 (racemic) [Compound 5l, (±) syn-ethyl 1-(2-(2,4-dioxo-1,2-dihydroquinazolin-3(4H)-yl)ethyl)-4-(4-(ethoxycarbonyl)phenyl)piperidine-3-carboxylate] | > 10000
> 10 |  | 89 ± 12 |  | > 9 |  | 101.2 to 102.5 |  |  | CCOC(=O)[C@@H]1CN(CCn2c(=O)c3ccccc3n(C)c2=O)CC[C@@H]1c1cccc(F)c1 (racemic) [Compound 6d, (±)-syn Ethyl 4-(3-fluorophenyl)-1-(2-(1-methyl-2,4-dioxo-1,2-dihydroquinazolin-3(4H)-yl)ethyl)piperidine-3-carboxylate] | 
 |  | 200 ± 51 |  | > 10 |  | 153.3 to 155.1 |  |  | CCOC(=O)[C@@H]1CN(CCn2c(=O)[nH]c3sccc3c2=O)CC[C@@H]1c1cccc(F)c1 (racemic) [Compound 7b, (±) syn-ethyl 1-(2-(2,4-dioxo-1,2-dihydrothieno[2,3-d]pyrimidin-3(4H)-yl)ethyl)-4-(3-fluorophenyl)piperidine-3-carboxylate] | 
 |  | 1470 ± 65 |  | > 10 |  | 190.3 to 191.5 |  |  | CCOC(=O)[C@@H]1CN(CCn2c(=O)[nH]c3sccc3c2=O)CC[C@@H]1c1ccc(C(F)(F)F)cc1 (racemic) [Compound 7c, (±) syn-ethyl 1-(2-(2,4-dioxo-1,2-dihydrothieno[2,3-d]pyrimidin-3(4H)-yl)ethyl)-4-(4-(trifluoromethyl)phenyl)piperidine-3-carboxylate] | 
 |  | 342 ± 103 |  | > 10 |  | 153.5 to 156.5 |  |  | CCOC(=O)[C@@H]1CN(CCn2c(=O)[nH]c3sccc3c2=O)CC[C@@H]1c1cccc(C(F)(F)F)c1 (relative stereo) [Compound 7d, syn-ethyl 1-(2-(2,4-dioxo-1,2-dihydrothieno[2,3-d]pyrimidin-3(4H)-yl)ethyl)-4-(3-(trifluoromethyl)phenyl)piperidine-3-carboxylate] | 
